As usually defined, the IC50 is the concentration needed to halve the response being measured.

The target in this assay is Macrophage metalloelastase (Homo sapiens, UniProt P39900). The assay is described as follows: Inhibition of MMP-12 catalytic domain.
Sequence of Macrophage metalloelastase (P39900 whole entry, the tested form may be a part): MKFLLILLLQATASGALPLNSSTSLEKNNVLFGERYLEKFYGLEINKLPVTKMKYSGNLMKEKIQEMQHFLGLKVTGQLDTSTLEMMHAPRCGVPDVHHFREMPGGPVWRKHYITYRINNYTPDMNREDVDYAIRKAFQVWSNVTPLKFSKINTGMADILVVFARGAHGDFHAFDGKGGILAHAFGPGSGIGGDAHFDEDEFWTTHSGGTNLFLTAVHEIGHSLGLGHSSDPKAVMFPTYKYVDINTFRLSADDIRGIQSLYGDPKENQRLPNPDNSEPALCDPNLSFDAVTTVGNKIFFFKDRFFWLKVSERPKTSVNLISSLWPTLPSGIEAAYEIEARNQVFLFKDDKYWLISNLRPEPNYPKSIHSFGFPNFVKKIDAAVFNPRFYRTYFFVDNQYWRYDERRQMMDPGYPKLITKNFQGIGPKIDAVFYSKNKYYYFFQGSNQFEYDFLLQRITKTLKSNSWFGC
With `O=C(NC[C@H]1CC[C@H](C(=O)O)CC1)c1cc(-c2ccc(OC(F)(F)F)cc2)cs1`, the IC50 came out at 400 nM.

Compound `O=C(NC[C@H]1CC[C@H](C(=O)O)CC1)c1cc(-c2ccc(OC(F)(F)F)cc2)ns1` displayed an IC50 of 3600 nM.

For `O=C(NC[C@H]1CC[C@H](C(=O)O)CC1)c1cc(-c2ccc(OC(F)(F)F)cc2)sn1`, the IC50 worked out at 31000 nM.

Compound `O=C(O)C[C@@H](NC(=O)c1cc(-c2ccc(OC(F)(F)F)cc2)c(F)s1)c1ccccc1` gave an IC50 of 200 nM.

In the case of `NC(=O)C[C@@H](NC(=O)c1cc(-c2ccc(OC(F)(F)F)cc2)c(F)s1)c1ccccc1`, half-maximal inhibition (IC50) was put at 85 nM.

For the compound `O=C(O)C[C@@H](NC(=O)c1cc(-c2ccc(-c3ccncc3)cc2)c(F)s1)c1ccccc1`, 13 nM corresponded to half-maximal inhibition (IC50).
